Measured values from patent publication US20190262307A1, “IGURATIMOD AS AN MIF INHIBITOR” (THE FEINSTEIN INSTITUTE FOR MEDICAL RESEARCH, priority 2016, published 2019).

What was measured:
[1] = system: LPS-treated human peripheral blood monocytes; test: LPS-induced cytokine release in human monocytes enriched by negative selection; type: cell-based; conditions: for TNFα release: concentrations up to 50 μM
Text: Preparation of Peripheral Blood Cells: Human peripheral blood was collected in sodium heparin (IRB#12-200A) or obtained as Leukopaks from New York Blood Center (New York, N.Y.). Mononuclear cells were isolated by density gradient centrifugation in Ficoll-Paque Plus (GE Healthcare; Pittsburgh, Pa.). Monocytes were either purified by two-hour adherence to Primaria culture plates (Corning Life Sciences; Corning, N.Y.) or enriched by negative magnetic selection using Monocyte Isolation Kit II (Miltenyi Biotech; Auburn, Calif.). All monocyte preps were cultured in RPMI supplemented with 10% human AB serum, 100 units/mL penicillin-streptomycin, and 2 mM L-glutamine and used within 24 hours. Macrophages were differentiated from adherence-purified monocytes by incubation with 10 ng/mL human M-CSF (Sigma) for seven days, with media replenishment performed on days 3 and 5.
Cytokine Production Assays: For LPS-induced cytokine release, negative selection-enriched monocytes (human) or mixed peripheral blood leukocytes (murine) were plated at a density of 2×10^5 cells/mL in 96-well plates. Cells were pre-treated with MIF inhibitors in 0.1% DMSO (final) for 1 hour before stimulation with LPS from E. coli R515 (Axxora; Farmingdale, N.Y.): 24 hours for human cells, 5 hours for murine cells. Cell-free supernatants were collected and stored at −80° C. for cytokine determinations by ELISA; 1:2 dilutions were used for TNFα and 1:3 dilutions for IL-8 and MCP-1.

[2] = system: LPS-stimulated human peripheral blood monocytes; conditions: cited from earlier work
[3] = system: adherence-purified human peripheral blood monocytes; test: Glucocorticoid synergy in vitro, adherence-purified monocytes; type: cell-based; conditions: LPS
Experimental: Glucocorticoid Synergy in vitro: The methods of Roger et al. and Kerschbaumer et al. were adapted for these experiments (17, 21). […] Cell-free supernatants were collected and analyzed immediately with a murine TNFα ELISA at a 1:10 dilution. THP-1 cells were plated at a density of 2×10^5 cells/well in a 96-well plate and used the same day with the same treatment conditions as RAW 264.7 cells, except that THP-1 cells were incubated with LPS for 16 hours prior to isolation of cell-free supernatants. Supernatants were analyzed using a human TNFα ELISA at a 1:10 dilution. Human peripheral blood mononuclear cells isolated by adherence (described above) were plated at a density of 2×10^5 cells/well in a 96-well plate and used the same day with the same treatment conditions as THP-1 cells. Supernatants were analyzed using a human TNFα ELISA at a 1:20 dilution. […] Cells were treated under the same conditions as THP-1 cells and supernatants were analyzed using a human TNFα ELISA at a 1:10 dilution.
For all above experiments, cytotoxicity was assessed using an MTT assay (1-2 hour incorporation); no significant cytotoxicity effects were observed under any treatment conditions unless otherwise noted.

[4] = early communications; cited from earlier work
[5] = system: C57/BL6 and MIF−/− mice, LPS; test: Non-lethal endotoxemia, serum TNFα; type: in vivo, mouse; conditions: 90 minutes post-LPS, 20 mg/kg i.p.
Text: Animal Experiments: The Institutional Animal Care and Use Committee of the Feinstein Institute for Medical Research reviewed and approved all animal protocols prior to initiation of experiments. Male BALB/c mice were purchased from the Jackson Laboratory (Bar Harbor, Me.) and used for endotoxemia experiments at ages 8-10 weeks. MIF KO animals were maintained on a C57/BL6 NCr background from Charles River Laboratories (Stone Ridge, N.Y.); these animals were used alongside matched wild-type animals for endotoxemia experiments at ages 8-12 weeks.
Endotoxemia: Endotoxemia was induced by intraperitoneal injection of LPS from E. coli O111:B4 (Sigma). […] Blood was collected by cardiac puncture and allowed to clot 20 minutes at room temperature and 20 minutes at 4° C.; sera were isolated by centrifugation at 300×g for 10 minutes and stored at −20° C. for further analysis by TNFα ELISA (1:3 dilution).

neonates pups with CDH = test: Nitrofen congenital diaphragmatic hernia (CDH) model, neonate pups; type: in vivo; conditions: vs Nitrofen group; for VGEF / eNOS phosphorylation: P<0.05
[6] = 1 h pre-treatment, 1 ng/mL LPS 24 h

Question: For `Oc1ccc(-c2cnc3ccccn23)cc1O` [Compound K-664.1], which MCP-1 release [1, 6] is on record?
Answer: Its MCP-1 release is “stronger suppressors of MCP-1 than TNFα”.

Question: And the TNFα release [1, 6]?
Answer: Its TNFα release is “moderate suppression”.

Question: For `COc1ccc2c(c1)c(CC(=O)O)c(C)n2C(=O)c1ccc(Cl)cc1` [indomethacin], which IL-1β intracellular accumulation [2] is on record?
Answer: Its IL-1β intracellular accumulation is “increases intracellular accumulation”.

Question: And the IL-1β release [2]?
Answer: Its IL-1β release is “inhibits release”.

Question: Which “concentration at which TNFα is suppressed (as low as)” value [3] does the source give for `CS(=O)(=O)Nc1cc2occ(NC=O)c(=O)c2cc1Oc1ccccc1` [Compound T-614, 3-formylamino-7-methylsulfonylamino-6-phenoxy-4H-1-benzopyran-4-one] here?
Answer: The value was no more than 10 µM.

Question: And the oral bioavailability [4]?
Answer: Its oral bioavailability is “orally bioavailable”.

Question: And the “serum TNFα, MIF−/− mice” value [5]?
Answer: The value was “no significant effect”.

Question: Which results are given for `O=C(O/N=C/c1ccc(O)cc1)C1CCCCC1` [OXIM-11]?
Answer: TNFα release [1, 6]: almost completely spared; suppression of the cytokines analyzed (TNFα, MCP-1, IL-8) ([1]; LPS-treated monocytes): minimal suppression

Question: For `CC(C)(C)COC(=O)CC1CC(c2ccc(O)c(F)c2)=NO1` (centres unmarked) [ISO-92], which “Arginase II” value (neonates pups with CDH) is on record?
Answer: The value was “significantly lower”.

Question: What about the VGEF (neonates pups with CDH) of the same compound?
Answer: Its VGEF is “significant increase”.

Question: What about the eNOS phosphorylation (neonates pups with CDH) of the same compound?
Answer: The eNOS phosphorylation was “significant increase”.

Question: What about the MCP-1 release [1, 6] of the same compound?
Answer: The MCP-1 release was “stronger suppressors of MCP-1 than TNFα”.

Question: What about the TNFα release [1, 6] of the same compound?
Answer: The TNFα release was “almost completely spared”.

Question: Which “Arginase II” value (neonates pups with CDH) does the source give for `COC(=O)CC1CC(c2ccc(O)cc2)=NO1` (centres unmarked) [ISO-1] here?
Answer: Its value is “significantly lower”.

Question: And the VGEF (neonates pups with CDH)?
Answer: The VGEF was “significant increase”.

Question: What about the eNOS phosphorylation (neonates pups with CDH) of the same compound?
Answer: Its eNOS phosphorylation is “significant increase”.

Question: And the TNFα release [1, 6]?
Answer: The TNFα release was “moderate suppression”.

Question: For `N[C@H](Cc1cc(I)c(Oc2cc(I)c(O)c(I)c2)c(I)c1)C(=O)O` [d-T4], which IL-8 release [1, 6] is on record?
Answer: The IL-8 release was “moderate suppression”.

Question: And the TNFα release [1, 6]?
Answer: Its TNFα release is “almost completely spared”.
